Experiments:
Aurora-A = molecular target: T1, Aurora-A (Mus musculus, UniProt P97477); test: Aurora-A Screening Assay; format: biochemical; details: murine Aurora-A full length, 10 μM ATP
T1 construct: followed by the full length protein encoding the murine Aurora-A; polyhistidine (N); made in house; host or cells: Sf9 insect cells
T1 sequence (P97477 1-395): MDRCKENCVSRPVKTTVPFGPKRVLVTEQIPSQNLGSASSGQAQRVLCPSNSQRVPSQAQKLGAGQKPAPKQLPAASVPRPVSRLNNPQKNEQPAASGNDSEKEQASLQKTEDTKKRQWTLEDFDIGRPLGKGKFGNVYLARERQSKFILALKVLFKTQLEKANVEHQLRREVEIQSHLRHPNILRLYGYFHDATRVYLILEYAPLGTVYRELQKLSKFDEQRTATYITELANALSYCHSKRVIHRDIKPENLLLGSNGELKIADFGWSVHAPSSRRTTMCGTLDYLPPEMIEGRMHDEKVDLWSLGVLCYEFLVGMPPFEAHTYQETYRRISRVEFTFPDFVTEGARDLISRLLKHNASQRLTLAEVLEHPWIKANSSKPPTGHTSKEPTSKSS
Protocol: (§1) A kinase reaction mixture was prepared containing 50 mM Tris-HCl at pH 8, 10 mM MgCl2, 0.1 mM Na3PO4, 1 mM DTT, 10 μM ATP, 0.025 μM biotinylated histone-H1 peptide substrate and 0.2 μCuries per well ^33P-γ-ATP (2000-3000 Ci/mmol). 70 μL of the kinase reaction mixture was dispensed into the well of a Streptavidin FlashPlate.
(§2) Test compound stock in 100% DMSO (1 μL) was added to the wells resulting in a final concentration of 1% DMSO in the reaction with a 100 μL final reaction volume. Each enzyme was diluted in 50 mM Tris-HCl pH=8.0, 0.1% BSA and 30 μL was added to each well to initiate the reaction. The reaction was incubated for one hour at 30° C. At the end of the 1 hr incubation, the reaction was terminated by aspirating the mixture from the plate and washing the wells twice with PBS containing 100 mM EDTA. The biotinylated peptide substrate became immobilized on the Flashplate™ and the incorporation of ^33P-γ-ATP was measured by reading the plate on a scintillation counter. Inhibition of the enzymatic activity was measured by observing a reduced amount of ^33P-γ-ATP incorporated into the immobilized peptide.
Aurora-A is a fusion protein containing a polyhistidine tag at the N terminus followed by the full length protein encoding the murine Aurora-A (Accession number GB BC014711) expressed and purified from sf9 insect cells. The assay used 400 ng of the N-terminal biotinylated peptide biotin-GRTGRRNSI-amide (Aurora-A) per well.
(§3) The IC50 was derived according to the procedure described in Example 1.

[1] = test system: HeLa cervical adenocarcinoma; test: Cell Proliferation Inhibition Assay (14C-thymidine incorporation), HeLa; format: cell-based; details: Homo sapiens; HeLa cells
Protocol: (§4) The ability of a test compound to inhibit unregulated cell proliferation was determined by measuring incorporation of ^14C-labelled thymidine into newly synthesized DNA within cell lines derived from carcinomas originating from several tissues. Accordingly, the anti-proliferative effect of a compound on cells with a variety of phenotypes may be determined.
(§5) Carcinoma cell lines include those such as HeLa cervical adenocarcinoma (American Type Culture Collection (ATCC), Virginia, Cat. #CCL-2), A375 malignant melanoma (ATCC CRL-1619), SK-OV-3 ovarian adenocarcinoma (ATCC HTB-77), HCT-116 colon carcinoma (CCL-247), PC-3 prostate adenocarcinoma (ATCC CRL-1435), and MDA-MB-231 (Xenogen Corp.)
(§6) The carcinoma cells were trypsinized and counted. The cells (3000-8000 count) were added to each well of a 96-well CytoStar tissue culture treated scintillating microplate (Amersham #RPNQ0160) in complete medium (100 μL) and the plate was then incubated in complete medium for 24 hrs at 37° C. in an […] atmosphere containing 5% CO2. Test compound (1 μL) in 100% DMSO was added to the plate test-wells with DMSO only added to control-wells. The plate was incubated in complete medium for a second 24 hr period at 37° C. in an atmosphere containing 5% CO2.
(§7) An aliquot of a solution of methyl ^14C-thymidine (56 mC/mmol) (NEN #NEC568 or Amersham #CFA532) and complete medium (20 uL to provide 0.2 μCi/well) was then added to each well and the plate was incubated for a third 24 hr period at 37° C. in an atmosphere containing 5% CO2. The plate contents were then discarded, the plate was washed twice with PBS (200 μL) and then PBS (200 μL) was added to each well. The plate was sealed and the degree of methyl ^14C-thymidine incorporation was quantified on a Packard Top Count.

A375 malignant melanoma = test: Cell Proliferation Inhibition Assay (14C-thymidine incorporation), A375; format: cell-based; details: Homo sapiens, A-375; A375 cells
Protocol: as §4, §5, §6, §7

HCT-116 colon carcinoma = test: Cell Proliferation Inhibition Assay (14C-thymidine incorporation), HCT116; format: cell-based; details: Homo sapiens, HCT116 cells
Protocol: as §4, §5, §6, §7

HER-2 = molecular target: T2, HER-2 (Homo sapiens, UniProt P04626); test: HER-2 Kinase Assay; format: biochemical; details: GST-HER2, 1 μM ATP
T2 construct: the nucleotides encoding amino acids 679 to 1255 of HER-2; HIS6-Thrombin (His6 tag and thrombin site) (N); purchased Proqinase (Freiburg, Germany)
Protocol: HER-2 kinase was purified at Proqinase (Freiburg, Germany) from a construct that consisted of a fusion of GST (Glutathione-S-Transferase), HIS6-Thrombin and the nucleotides encoding amino acids 679 to 1255 of HER-2.
A mixture of a 10× kinase reaction buffer (600 mM Hepes at pH 7.5, 30 mM Magnesium Chloride, 0.03 mM Sodium Vanadate and 500 μg/mL PEG 20,000), DTT (1.2 mM final from a 10 mM stock), ATP (1 μM from a 10 mM stock), biotinylated polyGluTyr (1.5 ng/μL final from stock of 1 μg/μL prepared by Upstate Biotechnologies, Lake Placid, N.Y.), Manganese Chloride (3 mM final from a 1 M stock), γ-^33P-ATP (10 μCi/μL stock) and water (70 μL/well) was added to each well of a Streptavidin Flashplate (Cat. # SMP103, NEN, Boston, Mass.).
Test compound stock (1 μL) was added to the appropriate wells. Diluted GSTHER2 kinase (6.7 ng/μL diluted into 50 mM Tris-HCl at pH 8.0 and 0.1% bovine serum albumin) (30 μL) was added (total volume of 200 ng/well) to initiate the reactions.
The reaction plates were incubated at 30° C. for 1 hr. The reaction was terminated by aspirating the reaction mixture from the plate wells and washing the wells three times with a 1×PBS stop buffer (300 μL) and 100 mM EDTA. After the final wash, the same stop buffer (200 μL) was again added to the wells. The plates were then sealed and read on the TopCount scintillation counter. The IC50 was derived according to the procedure described in Example 1.

VEGF-R2 = molecular target: T3, VEGF-R2 (Rattus norvegicus, UniProt O08775); test: VEGF-R2 Screening Assay; format: biochemical; details: rat VEGF-R2 kinase domain, 10 μM ATP
T3 construct: polyhistidine (N)
Protocol: as §1, §2
The VEGF-R2 enzyme is a fusion protein containing a polyhistidine tag at the N terminus followed by amino acids 786 to 1343 of the rat VEGF-R2 kinase domain (Accession number U93306). The assay used 150 ng of the N-terminal biotinylated peptide biotin-KHKKLAEGSAYEEV-amide (VEGF-R2) per well.
as §3

T2 sequence (P04626 679-1255): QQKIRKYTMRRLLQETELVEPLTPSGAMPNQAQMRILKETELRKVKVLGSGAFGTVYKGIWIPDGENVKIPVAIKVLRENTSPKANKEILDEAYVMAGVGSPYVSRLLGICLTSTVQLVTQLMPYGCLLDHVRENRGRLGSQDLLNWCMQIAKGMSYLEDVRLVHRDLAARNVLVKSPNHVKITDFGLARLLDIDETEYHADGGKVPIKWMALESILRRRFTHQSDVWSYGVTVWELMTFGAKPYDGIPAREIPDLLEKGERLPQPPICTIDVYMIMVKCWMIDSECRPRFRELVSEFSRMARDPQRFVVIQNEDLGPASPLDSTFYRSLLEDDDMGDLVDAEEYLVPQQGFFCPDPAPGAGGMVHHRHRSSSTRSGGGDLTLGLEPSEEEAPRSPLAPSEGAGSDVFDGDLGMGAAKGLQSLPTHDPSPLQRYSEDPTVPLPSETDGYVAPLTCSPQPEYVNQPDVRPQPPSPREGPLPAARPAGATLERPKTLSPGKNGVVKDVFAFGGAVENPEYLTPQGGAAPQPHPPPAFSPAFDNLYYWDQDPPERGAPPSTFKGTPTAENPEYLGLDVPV
T3 sequence (O08775 786-1343): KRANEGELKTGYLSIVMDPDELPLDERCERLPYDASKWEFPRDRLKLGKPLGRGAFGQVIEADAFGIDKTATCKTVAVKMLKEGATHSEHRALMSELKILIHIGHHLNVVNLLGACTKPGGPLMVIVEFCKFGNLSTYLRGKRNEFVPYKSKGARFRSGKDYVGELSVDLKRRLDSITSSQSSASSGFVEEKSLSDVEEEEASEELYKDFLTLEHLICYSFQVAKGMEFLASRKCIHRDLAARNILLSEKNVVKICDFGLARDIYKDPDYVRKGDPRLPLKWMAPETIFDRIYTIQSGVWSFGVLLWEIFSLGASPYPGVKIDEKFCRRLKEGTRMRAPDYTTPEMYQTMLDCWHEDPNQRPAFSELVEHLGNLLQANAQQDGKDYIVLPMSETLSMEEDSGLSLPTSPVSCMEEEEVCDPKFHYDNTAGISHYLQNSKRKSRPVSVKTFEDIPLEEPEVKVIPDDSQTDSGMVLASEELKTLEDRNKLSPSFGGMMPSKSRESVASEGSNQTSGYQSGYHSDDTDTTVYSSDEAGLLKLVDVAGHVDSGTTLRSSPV

Row | IC50 (Aurora-A) [µM] | IC50 [1] [µM] | IC50 (A375 malignant melanoma) [µM] | IC50 (HCT-116 colon carcinoma) [µM] | IC50 (HER-2) [µM] | IC50 (VEGF-R2) [µM] | SMILES
1 | > 10 | > 10 | > 10 | > 10 | > 100 | > 100 | Cc1c(C(=O)NCCN2CCOCC2)sc2ncnc(Nc3ccc(NC(=O)c4ccccc4)cc3)c12 [Cpd 25, 4-(4-benzoylamino-phenylamino)-5-methyl-thieno[2,3-d]pyrimidine-6-carboxylic acid (2-morpholin-4-yl-ethyl)-amide]
2 | > 1 | > 10 | > 10 | > 10 | > 10 | > 100 | Cc1c(C(=O)NCCCN2CCOCC2)sc2ncnc(Nc3ccc(NC(=O)c4ccccc4)cc3)c12 [Cpd 26, 4-(4-benzoylamino-phenylamino)-5-methyl-thieno[2,3-d]pyrimidine-6-carboxylic acid (3-morpholin-4-yl-propyl)-amide]

From patent US20080108611A1, “SUBSTITUTED THIENOPYRIMIDINE KINASE INHIBITORS” (priority 2006, published 2008)
